Test results: US11229664B2, “Treatment of myelosuppression” (priority 2012, dated 2022)
Several values for one entry are separate records, joined by “and”; a condition that tells them apart may be missing. Equal values may be shown once. Read-outs that look alike come from different tables or passages of the source.

How the values were obtained:
[1] = A2780 xenograft study: body weight; format: in vivo, athymic female mice; conditions: Group 2: 48 mg/kg IV QD + 24 mg/kg SC BID, individual mice, listed as PGX ODSH
Protocol: ODSH (50 mg/mL stock concentration) was made by Pyramid Laboratories, Inc. and stored at room temperature until use. As described further below, ODSH was administered either intravenously (IV), at a dose of 48 mg/kg and volume of 10 mL/kg, or subcutaneously (SC) at a dose of 24 mg/kg and volume of 5 ml/kg. Carboplatin obtained from a clinical supplier was stored at 4° C. until use. Carboplatin was administered by intraperitoneal injection (IP) at a dose of 80 mg/kg and volume of 10 mL/kg. Saline solution (0.9% NaCl) was used as a vehicle control for ODSH and administered by the same routes and in the same volumes as ODSH.
Human ovarian cancer cell line A2780 was used in the murine xenograft experiments as follows. Approximately 5×10^6 A2780 cells were used per mouse, injected subcutaneously into the right flank in 0.1 mL of 50% Matrigel/50% media. The study was initiated when tumors reached a size of 90-130 mg. 40 mice were used, 10 per treatment regimen. The mice were normal athymic female mice, aged 6-7 weeks, housed in microisolator cages and maintained under pathogen-free conditions. Tumor and body weights were measured three times per week.
Four treatment groups were studied.

[2] = test system: metastatic adenocarcinoma of the pancreas; assay: Clinical trial: tumor response and disease status (RECIST 1.1), ECOG performance status; format: in vivo, human
Protocol: Treatment consisted of a series of 28-day cycles, wherein the last day of one cycle (e.g., day 28, cycle 1) was immediately followed by the first day of the next cycle (e.g., day 1, cycle 2). In each 28-day treatment cycle, patients were dosed at days 1, 8, and 15 (three weeks of medication followed by one week of rest) as follows. First, nab-paclitaxel at 125 mg/m^2 was administered as an intravenous infusion over 30 minutes. […] Nab-paclitaxel and gemcitabine therapy was given as described in the prescribing information for Abraxane® and Gemzar®. See also, Von Hoff et al., 2011, J. Clinical Oncology 29:1-7).
(§1) As a substantially non-anticoagulant heparinoid, ODSH can be administered at a dose that is greater than the fully anticoagulant dose of unfractionated heparin, without concern for anticoagulant effect, as shown in the Results below.
Blood samples were also tested on day 1 of each treatment cycle for the serum level of CA19-9 (carbohydrate antigen 19-9) a marker used to assess the efficacy of the chemotherapy agents in treating pancreatic cancer. See. e.g., Maeda, 2011, Int. J. Clin. Oncol. 16(5):539-45. Reduction in the serum level of CA19-9 is indicative of chemotherapeutic efficacy against the pancreatic cancer. Tumor response and disease status was measured according to Response Evaluation Criteria in Solid Tumors (RECIST) Guidelines Version 1.1. Eur. J. Cancer, 2009, 45:228-247. A reduction of at least 30% in the sum of the diameters of target lesions (measurable lesions present at screening, up to 2 lesions per involved organ) was scored as a partial response. Patients were scored as having stable disease where the smallest sum of target lesion diameters neither decreased nor increased sufficiently to qualify as a partial response or progressive disease.

[3] = test system: partial thromboplastin time (aPTT); assay: Clinical trial: partial thromboplastin time (aPTT) during ODSH infusion; format: in vivo, human; conditions: for aPTT: individual patients
Excerpt: as §1
Lack of anticoagulation by ODSH was confirmed by monitoring partial thromboplastin time (aPTT) during ODSH infusion, at days 1, 3, 10, and 17 of treatment cycle 1. Normal range of aPTT is about 27 to 35 seconds+/−15%.

[4] = for Deaths: N = 10 per group
Protocol: All experiments were conducted on female athymic nude mice (Hsd:Athymic Nude-Foxn1nu) supplied by Harlan (Indianapolis, Ind.). Mice were received at four weeks of age, 12-15 grams in weight, and were acclimated for seven days prior to handling. The mice were housed in microisolator cages (Lab Products, Seaford, Del.) and maintained under specific pathogen-free conditions. All procedures were carried out under appropriate institutional guidelines for animal care.
Seven days following inoculation, tumors were measured using calipers and tumor weight was calculated using the animal study management software. […] Body weights were recorded when the mice were randomized and were taken twice weekly thereafter in conjunction with tumor measurements, on each of Days 1, 4, 8, 11, 15, 18, 22, 26, 30, 33, and 36.
The study was terminated when the vehicle control reached an endpoint of 1500 mg, on Day 36.

[5] = ten patients, ODSH adjunct to gemcitabine/nab-paclitaxel
[6] = Table 13, first column group, headed Day 22
[7] = Table 13, second column group, headed Day 26
[8] = ten mice per group, BxPC-3 xenograft study

## substantially 2-O, 3-O desulfated heparin [ODSH]
[1]; Day 1 (baseline)
  Individual weights, Day 1 Weight: 22.1 g and 20.3 g and 21.0 g and 21.8 g and 21.6 g and 21.4 g and 19.8 g (2×) and 20.9 g and 19.7 g
[1]; Day 4
  Day 4 Weight change: 3.6% and 1.5% and −0.5% and −1.8% and 6.5% and 1.9% and −1.0% and 5.6% and 10.0% and −2.5%
  Individual weights, Day 4 Weight: 22.9 g and 20.6 g and 20.9 g (2×) and 21.4 g and 23.0 g (2×) and 21.8 g and 19.6 g and 19.2 g
[1]; Day 6
  Day 6 Weight change: 5.0% and 1.5% and 1.0% and −1.4% and 13.4% and 2.8% and 2.0% and 7.6% and 8.1% and −2.5%
  Individual weights, Day 6 Weight: 23.2 g and 20.6 g and 21.2 g and 21.5 g and 24.5 g and 22.0 g and 20.2 g and 21.3 g and 22.6 g and 19.2 g
[1]; Day 8
  Day 8 Weight change: 5.0% and 5.4% and 2.9% and 2.3% and 16.2% and 5.6% (2×) and 12.1% and 6.7% and 2.0%
  Individual weights, Day 8 Weight: 23.2 g and 21.4 g and 21.6 g and 22.3 g (2×) and 25.1 g and 22.6 g and 20.9 g and 22.2 g and 20.1 g
[1]; Day 11
  Day 11 Weight change: 4.5% and 10.3% and 4.8% (2×) and 4.1% and 17.6% and 8.4% and 5.6% and 14.6% and 6.1%
  Individual weights, Day 11 Weight: 23.1 g and 22.4 g and 22.0 g and 22.7 g (2×) and 25.4 g and 23.2 g and 20.9 g (2×) and 21.9 g
[1]; Day 14
  Day 14 Weight change: 10.0% and 14.3% and 8.6% and 8.7% and 23.6% and 11.2% (2×) and 11.1% and 17.2% and 9.6%
  Individual weights, Day 14 Weight: 24.3 g and 23.2 g (2×) and 22.8 g and 23.7 g and 26.7 g and 23.8 g and 22.0 g and 22.9 g and 21.9 g
[1]; Day 18
  Day 18 Weight change: 5.9% and 14.3% and 11.0% and 6.4% and 22.2% and 11.2% and 1.0% and 10.1% and 10.0% and 7.6%
  Individual weights, Day 18 Weight: 23.4 g and 23.2 g (2×) and 23.3 g and 26.4 g and 23.8 g and 20.0 g and 21.8 g and 23.0 g and 21.2 g
[1]; Day 21
  Day 21 Weight change: 7.2% and 18.2% and 10.5% and 10.1% and 22.2% and 12.6% and 3.0% and 10.6% and 9.6% and 11.2%
  Individual weights, Day 21 Weight: 23.7 g and 24.0 g (2×) and 23.2 g and 26.4 g and 24.1 g and 20.4 g and 21.9 g (2×) and 22.9 g
[1]; Day 25
  Day 25 Weight change: 19.7% and 31.0% and 9.6% and 18.2% and 14.8%
  Individual weights, Day 25 Weight: 24.3 g and 28.3 g and 21.7 g and 23.4 g and 24.0 g
[1]; Day 28
  Day 28 Weight change: 23.2% and 32.9% and 15.7% and 20.2% and 15.8%
  Individual weights, Day 28 Weight: 29.0 g and 28.7 g and 22.9 g and 23.8 g and 24.2 g
[2]; 7 evaluable patients, after 8 weeks in the trial (day 1 of cycle 3)
  ECOG Performance status: stable or improved
[2]; after three or four full cycles of treatment
  Patients with clinical or radiographic evidence of progressive disease: no patient
[2]; [5]
  Patients with partial response (RECIST): 5 patients
  Patients with stable disease (RECIST): 5 patients
[3]; 4 mg/kg bolus + 0.375 mg/kg/hr 48 h
  Anticoagulation as determined by partial thromboplastin time (aPTT): did not result in anticoagulation
[3]; Cycle 1 Day 1
  aPTT: 29 seconds (2×) and 24 seconds and 36 seconds and 33 seconds and 28 seconds and 26 seconds and 25 seconds and 27 seconds
[3]; Cycle 1 Day 3
  aPTT: 28 seconds and 33 seconds (2×) and 43 seconds and 38 seconds and 31 seconds (3×) and 34 seconds
[3]; Cycle 1 Day 10
  aPTT: 34 seconds (2×) and 32 seconds and 38 seconds and 35 seconds and 31 seconds (2×) and 33 seconds and 36 seconds
[3]; Cycle 1 Day 17
  aPTT: 34 seconds and 28 seconds and 30 seconds (2×) and 42 seconds and 36 seconds and 33 seconds and 29 seconds
[4]; BxPC-3 xenograft study
  Day by which the mice recovered their weight: ≤ 22 days
  Day on which maximum weight loss was reached: 11 days
[4]; BxPC-3 xenograft study, doses of Table 1
  Tolerability / toxicity of the treatment regimen (in words): well-tolerated
[4]; Day 1
  Average Weight: 21.54 g
[4]; Day 4
  % Weight Loss or Gain: −1.67%
  Average Weight: 21.18 g
[4]; Day 8
  % Weight Loss or Gain: −1.67%
  Average Weight: 21.18 g
[4]; Day 11
  % Weight Loss or Gain: −2.74%
  Average Weight: 20.95 g
[4]; Day 15
  % Weight Loss or Gain: −2.14%
  Average Weight: 21.08 g
[4]; Day 18
  % Weight Loss or Gain: −2.32%
  Average Weight: 21.04 g
[4]; Day 22 (Table 12)
  % Weight Loss or Gain: 0.09%
  Average Weight: 21.56 g
[4]; Day 26 (Table 12)
  % Weight Loss or Gain: 2.79%
  Average Weight: 22.14 g
[4]; [6]
  % Weight Loss or Gain: 4.60%
  Average Weight: 22.53 g
[4]; [7]
  % Weight Loss or Gain: 4.27%
  Average Weight: 22.46 g
[4]; Total deaths on or before Day 26
  Deaths: 0
[4]; Total deaths on or before Day 36
  Deaths: 0
[4]; body weight of mice, BxPC-3 xenograft study
  Maximum weight loss: 2.7%
[4]; group mean body weight at start, dose, schedule and route per group as in table
  Starting Weight: 21.54 g
[4]; mouse, in vivo
  % Weight Loss or Gain: 4.92%
  Average Weight: 22.60 g
[4]; [8]
  Mice with bruising on the tails or abdomen (site of injection): All ten
  Mice with swelling of the tail: One of the ten
